Experimental data: US9211310B2, “Use of a Chinese medicine composition in preparing medicaments for treating secondary prevention of myocardial infarction” (TASLY PHARMACEUTICAL GROUP CO., LTD, priority 2010, dated 2015)

Test system: patients after acute myocardial infarction
Assay: TCM symptom score, total and single (chest pain, chest tightness, short breath, fatigue, palpitation, spontaneous perspiration, pale complexion), same clinical trial
Format: in vivo, human
Source text: 3508 patients who were in accordance with the diagnostic standards of AMI for 28 days to 2 years and differentiated as Qi deficiency and blood stagnation syndrome by TCM were studied. 0.5 g Chinese medicine composition prepared by the method of EXAMPLE 1 (Coded as QSYQ) was administrated half an hour after meal, 3 times per day.
They included the overall survival time, angina pectoris score, TCM symptom score and life quality score, where angina pectoris score, TCM symptom score and life quality score were evaluated at randomization, in 1st, 3rd, 6th, 9th, 12th month after treatment and 18th month after follow-up.
The analysis method referred to the angina pectoris score.

[1] = 3 months after treatment-baseline, PP
[2] = 6 months after treatment-baseline, FAS
[3] = 6 months after treatment-baseline, PP

CC(=O)Oc1ccccc1C(=O)O [Control group, aspirine]
change of chest pain score −6, percent of patients [1]: (0.97%)
change of chest tightness score 0, number of patients [1]: 994
change of chest tightness score 0, percent of patients [1]: (68.88%)
change of chest tightness score 3, number of patients [1]: 334
change of chest tightness score 3, percent of patients [1]: (23.15%)
change of chest tightness score 6, number of patients [1]: 34
change of chest tightness score 6, percent of patients [1]: (2.36%)
change of chest tightness score 9, number of patients [1]: 4
change of chest tightness score 9, percent of patients [1]: (0.28%)
change of chest tightness score −3, number of patients [1]: 70
change of chest tightness score −3, percent of patients [1]: (4.85%)
change of chest tightness score −6, number of patients [1]: 6
change of chest tightness score −6, percent of patients [1]: (0.42%)
change of chest tightness score −9, number of patients [1]: 1
change of chest tightness score −9, percent of patients [1]: (0.07%)
chest pain score 0, number of patients (3 months after treatment, FAS): 656
chest pain score 0, percent of patients (3 months after treatment, FAS): (38.21%)
chest pain score 3, number of patients (3 months after treatment, FAS): 643
chest pain score 3, percent of patients (3 months after treatment, FAS): (37.45%)
chest pain score 6, number of patients (3 months after treatment, FAS): 410
chest pain score 6, percent of patients (3 months after treatment, FAS): (23.88%)
chest pain score 9, number of patients (3 months after treatment, FAS): 8
chest pain score 9, percent of patients (3 months after treatment, FAS): (0.47%)
chest tightness score 0, number of patients (3 months after treatment, FAS): 656
chest tightness score 0, percent of patients (3 months after treatment, FAS): (38.21%)
chest tightness score 3, number of patients (3 months after treatment, FAS): 643
chest tightness score 3, percent of patients (3 months after treatment, FAS): (37.45%)
chest tightness score 6, number of patients (3 months after treatment, FAS): 410
chest tightness score 6, percent of patients (3 months after treatment, FAS): (23.88%)
chest tightness score 9, number of patients (3 months after treatment, FAS): 8
chest tightness score 9, percent of patients (3 months after treatment, FAS): (0.47%)
chest pain score 0, number of patients (3 months after treatment, PP): 550
chest pain score 0, percent of patients (3 months after treatment, PP): (38.01%)
chest pain score 3, number of patients (3 months after treatment, PP): 535
chest pain score 3, percent of patients (3 months after treatment, PP): (36.97%)
chest pain score 6, number of patients (3 months after treatment, PP): 356
chest pain score 6, percent of patients (3 months after treatment, PP): (24.60%)
chest pain score 9, number of patients (3 months after treatment, PP): 6
chest pain score 9, percent of patients (3 months after treatment, PP): (0.41%)
chest tightness score 0, number of patients (3 months after treatment, PP): 550
chest tightness score 0, percent of patients (3 months after treatment, PP): (38.01%)
chest tightness score 3, number of patients (3 months after treatment, PP): 535
chest tightness score 3, percent of patients (3 months after treatment, PP): (36.97%)
chest tightness score 6, number of patients (3 months after treatment, PP): 356
chest tightness score 6, percent of patients (3 months after treatment, PP): (24.60%)
chest tightness score 9, number of patients (3 months after treatment, PP): 6
chest tightness score 9, percent of patients (3 months after treatment, PP): (0.41%)
change of chest pain score 0, number of patients [2]: 1104
change of chest pain score 0, percent of patients [2]: (64.60%)
change of chest pain score 3, number of patients [2]: 405
change of chest pain score 3, percent of patients [2]: (23.70%)
change of chest pain score 6, number of patients [2]: 101
change of chest pain score 6, percent of patients [2]: (5.91%)
change of chest pain score 9, number of patients [2]: 6
change of chest pain score 9, percent of patients [2]: (0.35%)
change of chest pain score −3, number of patients [2]: 80
change of chest pain score −3, percent of patients [2]: (4.68%)
change of chest pain score −6, number of patients [2]: 13
change of chest pain score −6, percent of patients [2]: (0.76%)
change of chest pain score −9, number of patients [2]: 0
change of chest pain score −9, percent of patients [2]: (0.00%)
change of chest tightness score 0, number of patients [2]: 1105
change of chest tightness score 0, percent of patients [2]: (64.66%)
change of chest tightness score 1, number of patients [2]: 1
change of chest tightness score 1, percent of patients [2]: (0.06%)
change of chest tightness score 3, number of patients [2]: 459
change of chest tightness score 3, percent of patients [2]: (26.86%)
change of chest tightness score 6, number of patients [2]: 48
change of chest tightness score 6, percent of patients [2]: (2.81%)
change of chest tightness score 9, number of patients [2]: 4
change of chest tightness score 9, percent of patients [2]: (0.23%)
change of chest tightness score −3, number of patients [2]: 88
change of chest tightness score −3, percent of patients [2]: (5.15%)
change of chest tightness score −6, number of patients [2]: 3
change of chest tightness score −6, percent of patients [2]: (0.18%)
change of chest tightness score −9, number of patients [2]: 1
change of chest tightness score −9, percent of patients [2]: (0.06%)
change of chest pain score 0, number of patients [3]: 919
change of chest pain score 0, percent of patients [3]: (64.54%)
change of chest pain score 3, number of patients [3]: 352
change of chest pain score 3, percent of patients [3]: (24.72%)
change of chest pain score 6, number of patients [3]: 86
change of chest pain score 6, percent of patients [3]: (6.04%)
change of chest pain score 9, number of patients [3]: 5
change of chest pain score 9, percent of patients [3]: (0.35%)
change of chest pain score −3, number of patients [3]: 57
change of chest pain score −3, percent of patients [3]: (4.00%)
change of chest pain score −6, number of patients [3]: 5
change of chest pain score −6, percent of patients [3]: (0.35%)
change of chest pain score −9, number of patients [3]: 0
change of chest pain score −9, percent of patients [3]: (0.00%)
change of chest tightness score 0, number of patients [3]: 904
change of chest tightness score 0, percent of patients [3]: (63.44%)
change of chest tightness score 1, number of patients [3]: 1
change of chest tightness score 1, percent of patients [3]: (0.07%)
change of chest tightness score 3, number of patients [3]: 407
change of chest tightness score 3, percent of patients [3]: (28.56%)
change of chest tightness score 6, number of patients [3]: 42
change of chest tightness score 6, percent of patients [3]: (2.95%)
change of chest tightness score 9, number of patients [3]: 3
change of chest tightness score 9, percent of patients [3]: (0.21%)
change of chest tightness score −3, number of patients [3]: 64
change of chest tightness score −3, percent of patients [3]: (4.49%)
change of chest tightness score −6, number of patients [3]: 3
change of chest tightness score −6, percent of patients [3]: (0.21%)
change of chest tightness score −9, number of patients [3]: 1
change of chest tightness score −9, percent of patients [3]: (0.07%)
chest pain score 0, number of patients (6 months after treatment, FAS): 729
chest pain score 0, percent of patients (6 months after treatment, FAS): (42.43%)
chest pain score 3, number of patients (6 months after treatment, FAS): 638
chest pain score 3, percent of patients (6 months after treatment, FAS): (37.14%)
chest pain score 6, number of patients (6 months after treatment, FAS): 345
chest pain score 6, percent of patients (6 months after treatment, FAS): (20.08%)
chest pain score 9, number of patients (6 months after treatment, FAS): 6
chest pain score 9, percent of patients (6 months after treatment, FAS): (0.35%)
chest tightness score 0, number of patients (6 months after treatment, FAS): 729
chest tightness score 0, percent of patients (6 months after treatment, FAS): (42.43%)
chest tightness score 3, number of patients (6 months after treatment, FAS): 638
chest tightness score 3, percent of patients (6 months after treatment, FAS): (37.14%)
chest tightness score 6, number of patients (6 months after treatment, FAS): 345
chest tightness score 6, percent of patients (6 months after treatment, FAS): (20.08%)
chest tightness score 9, number of patients (6 months after treatment, FAS): 6
chest tightness score 9, percent of patients (6 months after treatment, FAS): (0.35%)
chest pain score 0, number of patients (6 months after treatment, PP): 613
